From patent US9655904B2, “Substituted benzoazepines as toll-like receptor modulators” (VentiRx Pharmaceuticals, Inc., priority 2009, dated 2017)

What was measured:
TLR7 = target: T1, TLR7 (Homo sapiens, UniProt Q9NYK1); experiment: PBMC assay for TLR7 (IFNα in supernatants by ELISA); assay type: cell-based; design: Peripheral blood mononuclear cells (PBMCs) from human blood were isolated; endogenous in cells; host or cells: human PBMCs; details: human PBMCs incubated with compound overnight, MC50 = concentration at which 50% of maximum induction is seen
T1 sequence (Q9NYK1 27-1049): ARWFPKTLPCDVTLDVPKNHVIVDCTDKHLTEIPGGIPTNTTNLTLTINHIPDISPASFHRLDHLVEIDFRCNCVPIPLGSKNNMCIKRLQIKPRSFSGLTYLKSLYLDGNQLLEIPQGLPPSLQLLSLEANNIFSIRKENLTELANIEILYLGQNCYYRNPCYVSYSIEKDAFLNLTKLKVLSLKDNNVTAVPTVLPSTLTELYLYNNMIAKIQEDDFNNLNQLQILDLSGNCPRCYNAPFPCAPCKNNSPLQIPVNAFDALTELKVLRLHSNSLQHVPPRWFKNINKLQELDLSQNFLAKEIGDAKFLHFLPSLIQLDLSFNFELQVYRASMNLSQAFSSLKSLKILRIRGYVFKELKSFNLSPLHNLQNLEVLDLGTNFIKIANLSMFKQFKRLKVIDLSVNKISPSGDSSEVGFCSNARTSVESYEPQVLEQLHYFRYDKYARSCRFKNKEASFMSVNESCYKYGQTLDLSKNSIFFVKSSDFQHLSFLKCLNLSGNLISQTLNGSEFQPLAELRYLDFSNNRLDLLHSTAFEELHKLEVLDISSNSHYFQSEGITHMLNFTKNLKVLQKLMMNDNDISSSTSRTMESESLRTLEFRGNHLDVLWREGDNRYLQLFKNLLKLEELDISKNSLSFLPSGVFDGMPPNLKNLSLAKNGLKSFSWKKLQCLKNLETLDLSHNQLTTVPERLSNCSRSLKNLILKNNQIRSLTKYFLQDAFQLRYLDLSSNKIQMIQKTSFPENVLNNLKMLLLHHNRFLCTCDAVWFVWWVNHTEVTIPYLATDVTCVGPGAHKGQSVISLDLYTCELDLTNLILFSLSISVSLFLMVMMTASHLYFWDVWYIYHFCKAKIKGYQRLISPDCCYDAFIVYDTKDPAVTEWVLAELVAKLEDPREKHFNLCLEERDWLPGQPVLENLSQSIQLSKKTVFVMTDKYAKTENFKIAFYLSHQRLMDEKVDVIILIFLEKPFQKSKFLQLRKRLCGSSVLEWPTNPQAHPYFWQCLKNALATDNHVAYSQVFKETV
Experimental: (§1) Peripheral blood mononuclear cells (PBMCs) from human blood were isolated using BD Vacutainer Cell Preparation Tubes with sodium citrate. Cells were incubated with compound overnight. TLR8 activity was assayed by measuring the amount of TNFα in supernatants by ELISA. TLR7 activity was assayed by measuring the amount of IFNα in supernatants by ELISA (R&D Systems). […] The results of this assay are shown below in Tables 2 and 3.
(§2) MC50 numbers are represented as factors of ten, for example, + indicates an MC50 value of X 10^4, or a value in the tens of thousands of nanomolar (nM range); ++ indicates an MC50 value of X 10^3, or a value in the thousands; +++ indicates an MC50 value of X 10^2, or a value in the hundreds; and ++++ indicates an MC50 value of X 10^1 or 10^0, or a value in the tens or ones.

TLR8 = target: T2, TLR8 (Homo sapiens, UniProt Q9NR97); experiment: PBMC assay for TLR8 (TNFα in supernatants by ELISA); assay type: cell-based; design: Peripheral blood mononuclear cells (PBMCs) from human blood were isolated; endogenous in cells; host or cells: human PBMCs; details: human PBMCs incubated with compound overnight, MC50 = concentration at which 50% of maximum induction is seen
T2 sequence (Q9NR97 27-1041): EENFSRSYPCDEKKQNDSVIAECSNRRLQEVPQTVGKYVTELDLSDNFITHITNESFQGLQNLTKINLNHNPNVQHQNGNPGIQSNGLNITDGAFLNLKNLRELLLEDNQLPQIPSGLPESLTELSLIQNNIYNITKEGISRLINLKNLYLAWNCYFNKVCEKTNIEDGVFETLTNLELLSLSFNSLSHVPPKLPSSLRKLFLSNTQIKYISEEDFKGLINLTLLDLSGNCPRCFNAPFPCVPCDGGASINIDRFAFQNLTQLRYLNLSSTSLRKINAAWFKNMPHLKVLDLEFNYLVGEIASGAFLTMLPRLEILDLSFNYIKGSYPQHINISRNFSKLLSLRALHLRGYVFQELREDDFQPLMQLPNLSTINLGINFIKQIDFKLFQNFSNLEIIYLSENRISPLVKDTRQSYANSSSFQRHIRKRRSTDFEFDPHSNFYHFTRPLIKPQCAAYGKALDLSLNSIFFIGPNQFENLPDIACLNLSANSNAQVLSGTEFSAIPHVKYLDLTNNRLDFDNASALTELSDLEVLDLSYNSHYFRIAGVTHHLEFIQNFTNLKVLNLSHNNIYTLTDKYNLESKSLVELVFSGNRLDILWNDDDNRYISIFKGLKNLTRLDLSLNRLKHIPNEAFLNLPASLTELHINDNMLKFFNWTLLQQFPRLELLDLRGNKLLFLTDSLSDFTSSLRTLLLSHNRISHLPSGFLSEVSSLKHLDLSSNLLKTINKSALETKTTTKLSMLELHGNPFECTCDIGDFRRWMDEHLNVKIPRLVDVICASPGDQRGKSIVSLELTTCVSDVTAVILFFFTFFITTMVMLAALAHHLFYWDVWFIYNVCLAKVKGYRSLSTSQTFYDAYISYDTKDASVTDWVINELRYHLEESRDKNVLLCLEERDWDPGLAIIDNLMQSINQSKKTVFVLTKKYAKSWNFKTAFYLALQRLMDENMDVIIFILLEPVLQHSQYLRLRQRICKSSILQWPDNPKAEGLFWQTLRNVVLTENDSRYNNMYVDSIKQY
Experimental: as §1, §2

| Compound | EC50 (TLR7) | EC50 (TLR8) |
| --- | --- | --- |
| CCCN(CCC)C(=O)C1=Cc2ccc(CCCN3CCOCC3)cc2N=C(N)C1 [Compound 184, (1E,4E)-2-amino-8-(3-morpholinopropyl)-N,N-dipropyl-3H-benzo[b]azepine-4-carboxamide] | 1 to 10 µM | 1 to 100 nM |
| CCCN(CCCO)C(=O)C1=Cc2ccc(-c3ccc(CC(=O)OCC(C)C)cc3)cc2N=C(N)C1 [Compound 216, Isobutyl 2-(4-((1E,4E)-2-amino-4-((3-hydroxypropyl)(propyl)carbamoyl)-3H-benzo[b]azepin-8-yl)phenyl)acetate] | 10 to 100 µM | 1 to 100 nM |
| NC1=Nc2cc(-c3ccc(C(=O)N4CCCC4)cc3)ccc2C=C(C(=O)NOCc2ccccc2)C1 [Compound 116, (1E,4E)-2-amino-N-(benzyloxy)-8-(4-(pyrrolidine-1-carbonyl)phenyl)-3H-benzo[b]azepine-4-carboxamide] | 10 to 100 µM | 1000 to 10000 nM |
| CCCN(CC1CCCN1)C(=O)C1=Cc2ccc(-c3ccc(C(=O)N4CCCC4)cc3)cc2N=C(N)C1 (stereo not drawn) [Compound 175, (1E,4E)-2-amino-N-propyl-N-(pyrrolidin-2-ylmethyl)-8-(4-(pyrrolidine-1-carbonyl)phenyl)-3H-benzo[b]azepine-4-carboxamide] |  | 1000 to 10000 nM |
| CCCN(CCCO)C(=O)C1=Cc2ccc(-c3ccc(CC(=O)OC(C)C)cc3)cc2N=C(N)C1 [Compound 215, Isopropyl 2-(4-((1E,4E)-2-amino-4-((3-hydroxypropyl)(propyl)carbamoyl)-3H-benzo[b]azepin-8-yl)phenyl)acetate] | 10 to 100 µM | 1 to 100 nM |
| CCCN(CCC)C(=O)C1=Cc2ccc(-c3ccc(CC(=O)O)cc3)cc2N=C(N)C1 [Compound 191, 2-(4-((1E,4E)-2-Amino-4-(dipropylcarbamoyl)-3H-benzo[b]azepin-8-yl)phenyl)acetic acid] | 10 to 100 µM | 1000 to 10000 nM |
| CCCN(CCC)C(=O)C1=Cc2ccc(-c3ccc(C4COC(=O)O4)cc3)cc2N=C(N)C1 (stereo not drawn) [Compound 225, (1E,4E)-2-amino-8-(4-(2-oxo-1,3-dioxolan-4-yl)phenyl)-N,N-dipropyl-3H-benzo[b]azepine-4-carboxamide] | 10 to 100 µM | 100 to 1000 nM |
| CCCN(CC1CCNCC1)C(=O)C1=Cc2ccc(-c3ccc(C(=O)N4CCCC4)cc3)cc2N=C(N)C1 [Compound 113, (1E,4E)-2-amino-N-(piperidin-4-ylmethyl)-N-propyl-8-(4-(pyrrolidine-1-carbonyl)phenyl)-3H-benzo[b]azepine-4-carboxamide] |  | 100 to 1000 nM |
| CCCN(OCc1ccccc1)C(=O)C1=Cc2ccc(-c3ccc(C(=O)N4CCCC4)cc3)cc2N=C(N)C1 [Compound 118, (1E,4E)-2-amino-N-(benzyloxy)-N-propyl-8-(4-(pyrrolidine-1-carbonyl)phenyl)-3H-benzo[b]azepine-4-carboxamide] |  | 1 to 100 nM |
| CCCN(CCC)C(=O)C1=Cc2ccc(OCc3ccccc3)cc2N=C(N)C1 [Compound 185, (1E,4E)-2-amino-8-(benzyloxy)-N,N-dipropyl-3H-benzo[b]azepine-4-carboxamide] |  | 100 to 1000 nM |
| CCOC(=O)C1=Cc2ccc(CCCN3CCOCC3)cc2N=C(N)C1 [Compound 200, (1E,4E)-ethyl 2-amino-8-(3-morpholinopropyl)-3H-benzo[b]azepine-4-carboxylate] |  | 1 to 100 nM |
| CCCN(CCC)C(=O)C1=Cc2ccc(-c3ccc(OS(=O)(=O)C(F)(F)F)cc3)cc2N=C(N)C1 [Compound 226, 4-((1E,4E)-2-amino-4-(dipropylcarbamoyl)-3H-benzo[b]azepin-8-yl)phenyl trifluoromethanesulfonate] |  | 100 to 1000 nM |
| CCCN(CCCO)C(=O)C1=Cc2ccc(-c3ccc4c(c3)COC4=O)cc2N=C(N)C1 [Compound 221, (1E,4E)-2-Amino-N-(3-hydroxypropyl)-8-(1-oxo-1,3-dihydroisobenzofuran-5-yl)-N-propyl-3H-benzo[b]azepine-4-carboxamide] |  | 100 to 1000 nM |
| CCCN(CCCO)C(=O)C1=Cc2ccc(-c3ccc(CC(=O)OCC4CC4)cc3)cc2N=C(N)C1 [Compound 217, Cyclopropylmethyl 2-(4-((1E,4E)-2-amino-4-((3-hydroxypropyl)(propyl)carbamoyl)-3H-benzo[b]azepin-8-yl)phenyl)acetate] |  | 1 to 100 nM |
| CCCN(CCC)C(=O)C1=Cc2ccc(-c3ccc(C(=O)NCCCC(=O)OCc4ccccc4)cc3)cc2N=C(N)C1 [Compound 201, benzyl 4-(4-((1E,4E)-2-amino-4-(dipropylcarbamoyl)-3H-benzo[b]azepin-8-yl)benzamido)butanoate] |  | 100 to 1000 nM |
| CCOC(=O)C1=Cc2ccc(OCc3ccccc3)cc2N=C(N)C1 [Compound 148, (1E,4E)-ethyl 2-amino-8-(benzyloxy)-3H-benzo[b]azepine-4-carboxylate] |  | 100 to 1000 nM |
| CCCN(CCCS(N)(=O)=O)C(=O)C1=Cc2ccc(-c3ccc(C(=O)N4CCCC4)cc3)cc2N=C(N)C1 [Compound 177, (1E,4E)-2-amino-N-propyl-8-(4-(pyrrolidine-1-carbonyl)phenyl)-N-(3-sulfamoylpropyl)-3H-benzo[b]azepine-4-carboxamide] |  | 100 to 1000 nM |
| CCCN(CCC)C(=O)C1=Cc2ccc(-c3ccc4c(c3)COC4=O)cc2N=C(N)C1 [Compound 198, (1E,4E)-2-Amino-8-(1-oxo-1,3-dihydroisobenzofuran-5-yl)-N,N-dipropyl-3H-benzo[b]azepine-4-carboxamide] |  | 100 to 1000 nM |
| CCCN(CCCO)C(=O)C1=Cc2ccc(-c3ccc(CC(=O)OCc4ccccc4)cc3)cc2N=C(N)C1 [Compound 218, Benzyl 2-(4-((1E,4E)-2-amino-4-((3-hydroxypropyl)(propyl)carbamoyl)-3H-benzo[b]azepin-8-yl)phenyl)acetate] |  | 100 to 1000 nM |
| CCCN(CCC)C(=O)C1=Cc2ccc(-c3cccc(CC(=O)OCC)c3)cc2N=C(N)C1 [Compound 205, Ethyl 2-(3-((1E,4E)-2-amino-4-(dipropylcarbamoyl)-3H-benzo[b]azepin-8-yl)phenyl)acetate] |  | 100 to 1000 nM |
| CCCN(CCC)C(=O)C1=Cc2ccc(-c3ccc(OCC(=O)O)cc3)cc2N=C(N)C1 [Compound 196, 2-(4-((1E,4E)-2-Amino-4-(dipropylcarbamoyl)-3H-benzo[b]azepin-8-yl)phenoxy)acetic acid] |  | 10000 to 100000 nM |
